The text below walks through data of patent publication US10808283B2, “Methods and kits for the molecular subtyping of tumors” (BioNTech Diagnostics GmbH, priority 2013, dated 2020).

In data set [1] the test system is HER2-positive tumor patients. In words: Kaplan Meier analysis of overall survival, HER2-positive tumor patients. The format is in vivo, human. The conditions noted are these: for HR, overall survival: docetaxel vs vinorelbine; for overall survival: 5 year time point. The source says: FIG. 14 depicts a Kaplan Meier analysis of the overall survival of HER2-positive tumor patients. […] B: Similar results are shown for tumors subtyped by IHC (86% vs. 89%, HR 1.175; CI 0.518-2.663).
(§1) For the evaluation of breast tumors, 855 out of 1010 breast cancer patients of the FinHER study (Joensuu et al. (2006), N Engl J Med, 354:809-820) could be used. The mean cut-off values (given as 40-ΔCT values) were as follows: HER2: 38; ESR1: 34; PGR: 30,2; Ki67: 31.7; and RACGAP1: 34.2. The cut-off values for HER2 and ESR1 were determined based on evaluation of previous studies (Koutras et al. (2008), Brit. J. of Cane., 99:1775-1785; Pentheroudakis et al. (2009), Breast Cancer Res Treat 2009, 116:131-143) using 268 samples and were applied to the FinHER study (proportional hazards model validation). CALM2 served as reference gene.
(§2) FIGS. 10 to 19 depict Kaplan-Meier survival curves for different tumor subtypes (luminal B, HER2-positive, luminal A, and triple-negative breast cancer [TNBC]) treated with different chemotherapy agents (docetaxel or vinorelbine). Subytpes defined by RT-qPCR according to the present invention are shown in panel A, whereas subtypes defined by IHC are shown in panel B. Dotted lines mark the 5 year time point for outcome calculations.

In data set [2] the test system is patients with luminal B tumors. Kind of data set: Kaplan Meier analysis of overall survival, FinHER patients with luminal B tumors. In kind it is in vivo, human. Details: overall survival: concentration or dose not given beside the values. The conditions noted are these: for HR, overall survival: docetaxel vs vinorelbine.
Description: FIG. 10 depicts a Kaplan Meier analysis of the overall survival of patients with luminal B tumors. […] B: en the tumor subtype is defined by IHC, the benefit of docetaxel for luminal B patients cannot be shown (95% vs. 92%, HR 0.617; CI 0.235-1.623).
FIG. 11 depicts a Kaplan Meier analysis of the overall survival of patients with luminal B tumors, adjusted for tumor histologic type by Cox Regression as specified in the SAP. A: The prediction of the docetaxel benefit by RT-qPCR kit remains significant (97% vs. 88%, HR 0.232; CI 0.087-0.624). B: Subtyping by IHC is not predictive for a docetaxel benefit (96% vs. 92%, HR 0.510; CI 0.184-1.414).
as §1, §2

The test system of another data set is luminal A tumor patients. Kind of data set: Kaplan Meier analysis of distant metastasis free survival, luminal A tumor patients. In kind it is in vivo, human. The settings on record: for HR, DMFS: docetaxel vs vinorelbine; for distant metastasis free survival: 5 year time point. The method, then: FIG. 17 depicts a Kaplan Meier analysis of distant metastasis free survival of luminal A tumor patients.
as §1, §2

In a further data set the test system is luminal A tumors. In words: Kaplan Meier analysis of overall survival, luminal A tumors. The format is in vivo, human. The settings on record: for HR, overall survival: docetaxel vs vinorelbine; for overall survival: 5 year time point.
Description: FIG. 16 depicts a Kaplan Meier analysis of overall survival of luminal A tumors. […] B: By contrast, when defined by IHC, luminal A patients show a weak, yet non-significant trend towards longer overall survival (97 vs. 93% HR 0.443; CI 0.114-1.716) when treated with docetaxel as compared to vinorelbine.
as §1, §2

The subject of data set [3] is TNBC tumor patients. Kind of data set: Kaplan Meier analysis of overall survival, TNBC tumor patients. In kind it is in vivo, human. The conditions noted are these: for HR, overall survival: docetaxel vs vinorelbine; for overall survival: 5 year time point.
Description: FIG. 18 depicts a Kaplan Meier analysis of overall survival of TNBC tumor patients. […] B: When defined by IHC, TNBC patients show a weak, yet non-significant trend towards longer overall survival (88% vs. 80%, HR 0.552; CI 0.207-1.472).
as §1, §2

In a further data set the test system is luminal B tumor patients. In words: Kaplan Meier analysis of distant metastasis free survival (DMFS), luminal B tumor patients. In kind it is in vivo, human. The conditions noted are these: for distant metastasis free survival: adjusted for number of metastatic lymph nodes, tumor size and histologic type, 5 years; for distant metastasis free survival (DMFS): 5 year time point.
Description: FIG. 12 depicts a Kaplan Meier analysis of distant metastasis free survival (DMFS) of luminal B tumor patients. A: When defined by RT-qPCR, luminal B patients have a higher probability to remain free of distant metastasis when treated with docetaxel-FEC as compared to vinorelbine-FEC (89% vs. 78% respectively, HR 0.471; CI 0.263-0.843). B: When luminal B tumors are defined by IHC, survival differences are not observed between different treatment regimens (87% vs. 86%, HR 0.938 CI 0.474-1.856).
FIG. 13 depicts a Kaplan Meier analysis of distant metastasis free survival of patients with luminal B tumors, adjusted for number of metastatic lymph nodes, tumor size and histologic type by Cox Regression as specified in the SAP. A: By using the subtyping assay of the present invention the effect remains significant (90 vs. 78%, HR 0.409; CI 0.219-0.764). B: By contrast there is no effect when tumor subtyping occurs by IHC (89% vs. 85%, HR 0.674; CI 0.307-1.481).
as §1, §2

For the next data set, the system named is HER2-positive tumors. Kind of data set: Kaplan Meier analysis of distant metastasis free survival, HER2-positive tumors. The conditions noted are these: for HR, DMFS: docetaxel vs vinorelbine; for distant metastasis free survival: 5 year time point. In kind it is in vivo, human. The procedure:
FIG. 15 depicts a Kaplan Meier analysis of distant metastasis free survival of HER2-positive tumors.
as §1, §2

Data set [4] has as its system TNBC tumor patients. Kind of data set: Kaplan Meier analysis of distant metastasis free survival, TNBC tumor patients. In kind it is in vivo, human. The settings on record: for distant metastasis free survival: 5 year time point; for HR, DMFS: docetaxel vs vinorelbine.
Description: FIG. 19 depicts a Kaplan Meier analysis of distant metastasis free survival of TNBC tumor patients. […] B: IHC-defined TNBC patients show a weak, yet non-significant trend towards longer distant metastasis free survival (82% vs. 72%, HR 0.615; CI 0.284-1,333) when treated with docetaxel as compared to vinorelbine.
as §1, §2

The conditions of data set [5]: FinHER clinical trial; docetaxel compared with vinorelbine; cited from earlier work.
Setting [6] is: FIG. 14A, HER2-positive defined by RT-qPCR.
Where [7] appears, read: FIG. 14B, HER2-positive subtyped by IHC.
The mark [8] stands for this setting: FIG. 10B, luminal B defined by IHC, 5 year time point.
Where [9] appears, read: FIG. 11A, luminal B by RT-qPCR, adjusted for tumor histologic type by Cox Regression, 5 years.
Setting [10] is: FIG. 11B, luminal B by IHC, adjusted for tumor histologic type by Cox Regression, 5 years.
Setting [11] is: FIG. 17A, luminal A defined by RT-qPCR.
[12] abbreviates: FIG. 17B, luminal A IHC-subtyped.
The mark [13] stands for this setting: FIG. 16A, luminal A defined by RT-qPCR.
Where [14] appears, read: FIG. 16B, luminal A defined by IHC.
[15] abbreviates: FIG. 18A, TNBC defined by RT-qPCR.
Setting [16] is: FIG. 15A, HER2-positive defined by method of the invention (RT-qPCR).
Setting [17] is: FIG. 15B, HER2-positive defined by IHC.
The mark [18] stands for this setting: FIG. 10A, luminal B defined by RT-qPCR, 5 year time point, combined with FEC.
Setting [19] is: FIG. 12A, luminal B defined by RT-qPCR.
Where [20] appears, read: FIG. 12B, luminal B defined by IHC.

For the compound `CC(=O)O[C@@]12CO[C@@H]1C[C@H](O)[C@@]1(C)C(=O)[C@H](O)C3=C(C)[C@@H](OC(=O)[C@H](O)[C@@H](NC(=O)OC(C)(C)C)c4ccccc4)C[C@@](O)([C@@H](OC(=O)c4ccccc4)[C@H]21)C3(C)C` [docetaxel], the “HR, overall survival” value amounted to 1.320 in data set [1] (FIG. 14A, HER2-positive by RT-qPCR); 1.175 in [1] (FIG. 14B, HER2-positive by IHC); 0.617 in data set [2] (FIG. 10B, luminal B defined by IHC); 0.232 in data set [2] (FIG. 11A, luminal B by RT-qPCR, adjusted for tumor histologic type); 0.510 in data set [2] (FIG. 11B, luminal B by IHC, adjusted for tumor histologic type); 2.471 with luminal A tumors (FIG. 16A, luminal A by RT-qPCR). Further, the “HR, overall survival” value is 0.443 with luminal A tumors (FIG. 16B, luminal A by IHC); 0.949 in the data set on TNBC tumor patients [3] (FIG. 18A, TNBC by RT-qPCR); 0.552 in the data set with TNBC tumor patients [3] (FIG. 18B, TNBC by IHC). The overall survival is 87% in data set [1] (setting [6]); 86% in [1] (setting [7]); 95% in data set [2] (setting [8]); 97% in [2] (setting [9]); 96% in data set [2] (setting [10]); 95% in the data set with luminal A tumors (setting [13]). In addition, the overall survival worked out at 97% with luminal A tumors (setting [14]); 84% with TNBC tumor patients [3] (setting [15]); 88% in the data set on TNBC tumor patients [3] (FIG. 18B, TNBC defined by IHC). Besides, the “benefit of docetaxel treatment” value in data set [2] (luminal B tumors classified by RT-qPCR, FIGS. 10 to 19, vs vinorelbine, combined with FEC) is given as “significant benefit”. In addition, the “HR, DMFS” value in the data set on luminal A tumor patients (FIG. 17A, luminal A by RT-qPCR) was 0.826; in the data set on luminal A tumor patients (FIG. 17B, luminal A by IHC) it was 0.553; in the data set with luminal B tumor patients (FIG. 13A, luminal B by RT-qPCR, adjusted for metastatic lymph nodes, tumor size, histologic type, docetaxel vs vinorelbine), 0.409; with luminal B tumor patients (FIG. 13B, luminal B by IHC, adjusted for metastatic lymph nodes, tumor size, histologic type, docetaxel vs vinorelbine), 0.674; in the data set on HER2-positive tumors (FIG. 15A, HER2-positive by RT-qPCR), 1.070; in the data set on HER2-positive tumors (FIG. 15B, HER2-positive by IHC), 0.975. In addition, the “HR, DMFS” value came to 1.211 in the data set with TNBC tumor patients [4] (FIG. 19A, TNBC by RT-qPCR) and 0.615 in the data set with TNBC tumor patients [4] (FIG. 19B, TNBC by IHC). Also, the “distant metastasis free survival” value with luminal A tumor patients (setting [11]) was 92%; with luminal A tumor patients (setting [12]), 93%; in the data set with luminal B tumor patients (FIG. 13A, luminal B by RT-qPCR), 90%; in the data set with luminal B tumor patients (FIG. 13B, luminal B by IHC), 89%; with HER2-positive tumors (setting [16]), 80%; with HER2-positive tumors (setting [17]), 78%. Also, the “distant metastasis free survival” value was determined as 74% in the data set with TNBC tumor patients [4] (FIG. 19A, RT-qPCR-defined TNBC) and 82% in the data set on TNBC tumor patients [4] (FIG. 19B, IHC-defined TNBC). The “outcome compared to vinorelbine” value in the data set on luminal A tumors (luminal A tumors by RT-qPCR, effect does not reach statistical significance) is on record as “even inferior to vinorelbine”. The adverse effects entry in [5] is “more commonly associated with adverse effects”.
For the compound `CCC1=C[C@@H]2CN(C1)Cc1c([nH]c3ccccc13)[C@@](C(=O)OC)(c1cc3c(cc1OC)N(C)[C@H]1[C@@](O)(C(=O)OC)[C@H](OC(C)=O)[C@]4(CC)C=CCN5CC[C@]31[C@@H]54)C2` [vinorelbine], the overall survival was 91% in data set [1] (setting [6]); 89% in data set [1] (setting [7]); 88% in data set [2] (setting [9]); 92% in data set [2] (setting [10]); 98% in the data set on luminal A tumors (setting [13]); 93% with luminal A tumors (setting [14]). For the same compound, the overall survival is given as 83% in the data set on TNBC tumor patients [3] (setting [15]) and 80% with TNBC tumor patients [3] (FIG. 18B, TNBC defined by IHC). Moreover, the “distant metastasis free survival” value with luminal A tumor patients (setting [11]) is on record as 90%; with luminal A tumor patients (setting [12]), 88%; in the data set with luminal B tumor patients (FIG. 13A, luminal B by RT-qPCR), 78%; with luminal B tumor patients (FIG. 13B, luminal B by IHC), 85%; in the data set on HER2-positive tumors (setting [16]), 81%; in the data set with HER2-positive tumors (setting [17]), 77%. Besides, the “distant metastasis free survival” value with TNBC tumor patients [4] (FIG. 19A, RT-qPCR-defined TNBC) is on record as 78%; in the data set with TNBC tumor patients [4] (FIG. 19B, IHC-defined TNBC), 72%.
With docetaxel, in data set [2] (setting [18]), the overall survival was 97%. Also, the “Hazard Ratio [HR], overall survival” value in data set [2] (FIG. 10A, luminal B defined by RT-qPCR, docetaxel-FEC vs vinorelbine-FEC) is reported as 0.241. Besides, the “distant metastasis free survival (DMFS)” value amounted to 89% in the data set with luminal B tumor patients (setting [19]) and 87% in the data set with luminal B tumor patients (setting [20]). Besides, the “HR, DMFS” value in the data set with luminal B tumor patients (FIG. 12A, luminal B defined by RT-qPCR, docetaxel-FEC vs vinorelbine-FEC) is on record as 0.471; in the data set on luminal B tumor patients (FIG. 12B, luminal B defined by IHC, docetaxel-FEC vs vinorelbine-FEC), 0.938.
With vinorelbine, the overall survival in data set [2] (setting [18]) amounted to 89%; in data set [2] (setting [8]), 92%. Besides, the “distant metastasis free survival (DMFS)” value amounted to 78% with luminal B tumor patients (setting [19]) and 86% in the data set on luminal B tumor patients (setting [20]).
